Test results from ChEMBL document CHEMBL3758169, “4-Aminoindazolyl-dihydrofuro[3,4-d]pyrimidines as non-covalent inhibitors of mutant epidermal growth factor receptor tyrosine kinase” (Bioorg Med Chem Lett, 2016).
≈ marks a conversion by molar mass, not a printed value. Blank lines part the entries; values can stand above or below the compound they belong to.

Tests used:
[1] = target: T1, Epidermal growth factor receptor (Homo sapiens, UniProt P00533, L858R/T790M); test: Inhibition of EGFR T790M/L858R mutant (unknown origin); type: protein assay
T1 sequence (P00533 25-1210 T790M/L858R limits assumed): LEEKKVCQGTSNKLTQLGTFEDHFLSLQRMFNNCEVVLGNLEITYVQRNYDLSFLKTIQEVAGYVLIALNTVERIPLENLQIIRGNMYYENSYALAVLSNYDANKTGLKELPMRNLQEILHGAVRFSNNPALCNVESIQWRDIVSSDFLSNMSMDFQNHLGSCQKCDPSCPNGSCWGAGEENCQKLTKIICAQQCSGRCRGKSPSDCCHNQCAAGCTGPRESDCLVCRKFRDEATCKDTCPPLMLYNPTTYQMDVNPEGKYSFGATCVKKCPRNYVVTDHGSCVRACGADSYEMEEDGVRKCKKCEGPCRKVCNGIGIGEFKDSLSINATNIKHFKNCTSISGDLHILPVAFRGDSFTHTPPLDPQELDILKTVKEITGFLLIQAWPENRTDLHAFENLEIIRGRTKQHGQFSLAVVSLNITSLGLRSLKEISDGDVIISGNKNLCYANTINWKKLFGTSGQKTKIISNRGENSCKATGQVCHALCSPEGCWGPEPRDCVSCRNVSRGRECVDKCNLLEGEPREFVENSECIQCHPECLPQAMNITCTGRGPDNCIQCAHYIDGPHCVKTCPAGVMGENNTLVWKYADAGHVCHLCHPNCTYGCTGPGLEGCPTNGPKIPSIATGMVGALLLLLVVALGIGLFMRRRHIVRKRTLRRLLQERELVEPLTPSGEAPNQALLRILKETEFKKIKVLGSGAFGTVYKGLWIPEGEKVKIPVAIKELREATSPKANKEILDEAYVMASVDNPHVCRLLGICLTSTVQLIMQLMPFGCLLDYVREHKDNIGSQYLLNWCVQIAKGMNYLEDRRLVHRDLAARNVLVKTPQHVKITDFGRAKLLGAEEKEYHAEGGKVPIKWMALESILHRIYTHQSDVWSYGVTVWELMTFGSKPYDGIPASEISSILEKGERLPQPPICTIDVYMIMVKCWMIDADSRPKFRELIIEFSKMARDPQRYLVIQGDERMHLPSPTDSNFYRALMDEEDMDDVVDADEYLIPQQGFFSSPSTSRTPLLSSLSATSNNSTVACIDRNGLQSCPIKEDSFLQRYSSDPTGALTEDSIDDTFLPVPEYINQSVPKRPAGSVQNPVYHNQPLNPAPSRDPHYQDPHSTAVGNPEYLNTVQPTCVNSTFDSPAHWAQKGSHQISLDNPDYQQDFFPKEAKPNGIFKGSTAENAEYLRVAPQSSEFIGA

[2] = Plasma clearance in iv dosed rat; type: ADME, organism-based
[3] = Volume of distribution at steady state in rat; type: ADME, organism-based; conditions: in vivo, read-out: Vdss
Hepatocyte [4] = test: Drug metabolism in human hepatocytes assessed as glucuronidation; type: ADME, cell-based
Hepatocyte [5] = test: Drug metabolism in rat hepatocytes assessed as glucuronidation; type: ADME, cell-based
[6] = Apparent permeability from the apical to basolateral side in MDCK cells; type: ADME, cell-based, Canis lupus familiaris; conditions: dog
[7] = target: Dual specificity mitogen-activated protein kinase kinase 1 (Homo sapiens) (UniProt Q02750); test: Inhibition of MEK1 (unknown origin) at 1000 nM
[8] = target: Tyrosine-protein kinase JAK2 (Homo sapiens) (UniProt O60674); test: Inhibition of JAK2 (unknown origin) at 1000 nM
[9] = target: T1, Epidermal growth factor receptor; test: Inhibition of EGFR T790M/L858R mutant autophosphorylation in human H1975 cells; type: cell-based
[10] = target: Mitogen-activated protein kinase 1 (Homo sapiens) (UniProt P28482); test: Inhibition of ERK2 (unknown origin) at 1000 nM
[11] = target: High affinity nerve growth factor receptor (Homo sapiens) (UniProt P04629); test: Inhibition of TRKA (unknown origin) at 1000 nM
[12] = Drug excretion in iv dosed rat bile assessed as glucuronide metabolite; type: ADME, organism-based; conditions: in vivo
[13] = target: T2, Epidermal growth factor receptor (Homo sapiens, UniProt P00533); test: Inhibition of EGFR deletion (746 to 750 residues) mutant (unknown origin); type: protein assay
Target sequence in this assay (P00533 25-1210 limits assumed, stated change not applied): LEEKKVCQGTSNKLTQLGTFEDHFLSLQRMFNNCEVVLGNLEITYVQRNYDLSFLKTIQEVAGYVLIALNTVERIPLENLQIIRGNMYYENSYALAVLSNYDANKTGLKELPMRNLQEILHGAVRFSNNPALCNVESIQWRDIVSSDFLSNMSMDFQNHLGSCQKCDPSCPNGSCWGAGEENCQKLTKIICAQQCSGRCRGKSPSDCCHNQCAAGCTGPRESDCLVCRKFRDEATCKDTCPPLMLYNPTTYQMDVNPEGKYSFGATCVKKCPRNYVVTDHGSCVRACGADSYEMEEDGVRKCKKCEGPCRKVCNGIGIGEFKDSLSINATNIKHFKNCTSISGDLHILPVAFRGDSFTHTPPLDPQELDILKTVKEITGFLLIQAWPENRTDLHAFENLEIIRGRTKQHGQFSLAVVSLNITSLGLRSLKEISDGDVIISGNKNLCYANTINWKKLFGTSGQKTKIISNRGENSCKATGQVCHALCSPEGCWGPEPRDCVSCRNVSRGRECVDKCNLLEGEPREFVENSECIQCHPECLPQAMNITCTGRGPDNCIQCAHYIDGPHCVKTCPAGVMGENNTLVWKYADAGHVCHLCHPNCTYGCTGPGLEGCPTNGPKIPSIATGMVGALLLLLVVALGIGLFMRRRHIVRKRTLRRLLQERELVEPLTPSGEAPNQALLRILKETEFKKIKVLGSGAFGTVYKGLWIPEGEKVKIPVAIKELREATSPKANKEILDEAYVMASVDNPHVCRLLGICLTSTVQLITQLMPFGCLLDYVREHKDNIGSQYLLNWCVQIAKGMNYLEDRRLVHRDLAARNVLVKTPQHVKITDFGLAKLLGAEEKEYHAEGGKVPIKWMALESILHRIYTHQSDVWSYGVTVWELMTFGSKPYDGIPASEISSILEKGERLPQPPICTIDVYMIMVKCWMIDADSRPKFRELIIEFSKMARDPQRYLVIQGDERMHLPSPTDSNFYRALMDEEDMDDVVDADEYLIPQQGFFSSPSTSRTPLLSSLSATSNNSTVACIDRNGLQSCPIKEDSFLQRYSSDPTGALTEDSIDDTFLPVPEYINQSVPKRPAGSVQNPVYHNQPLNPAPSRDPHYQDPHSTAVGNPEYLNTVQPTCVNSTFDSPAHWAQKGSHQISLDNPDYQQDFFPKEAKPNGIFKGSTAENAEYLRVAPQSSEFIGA

[14] = target: Aurora kinase B (Homo sapiens) (UniProt Q96GD4); test: Inhibition of Aurora B (unknown origin) at 1000 nM
[15] = Drug excretion in iv dosed rat urine assessed as oxidative metabolite; type: ADME, organism-based; conditions: in vivo
[16] = Kinetic solubility of compound; type: physicochemical; conditions: read-out: Kinetic_solubility
[17] = target: T3, Inhibitor of nuclear factor kappa-B kinase subunit epsilon (Homo sapiens) (UniProt Q14164); test: Inhibition of IKKepsilon (unknown origin) at 1000 nM
T3 sequence (whole entry): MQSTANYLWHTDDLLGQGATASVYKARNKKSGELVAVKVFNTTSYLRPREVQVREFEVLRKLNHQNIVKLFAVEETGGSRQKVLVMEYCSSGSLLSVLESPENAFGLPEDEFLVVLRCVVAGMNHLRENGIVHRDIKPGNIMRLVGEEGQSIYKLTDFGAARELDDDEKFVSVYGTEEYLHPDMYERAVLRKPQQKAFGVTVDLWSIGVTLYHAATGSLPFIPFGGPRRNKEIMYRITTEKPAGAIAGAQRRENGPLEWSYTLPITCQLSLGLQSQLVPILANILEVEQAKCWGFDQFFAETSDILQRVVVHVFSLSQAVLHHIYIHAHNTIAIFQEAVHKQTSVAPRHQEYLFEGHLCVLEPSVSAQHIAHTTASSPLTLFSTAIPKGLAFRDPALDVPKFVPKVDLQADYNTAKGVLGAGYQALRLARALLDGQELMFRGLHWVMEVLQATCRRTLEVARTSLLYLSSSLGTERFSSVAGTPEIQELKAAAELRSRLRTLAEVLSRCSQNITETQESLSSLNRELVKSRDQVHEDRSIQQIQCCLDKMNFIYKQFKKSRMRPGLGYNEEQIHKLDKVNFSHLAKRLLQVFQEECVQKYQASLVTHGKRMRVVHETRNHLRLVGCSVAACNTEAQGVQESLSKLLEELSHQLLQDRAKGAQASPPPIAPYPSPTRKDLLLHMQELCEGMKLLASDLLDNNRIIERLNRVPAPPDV

[18] = target: Receptor tyrosine-protein kinase erbB-4 (Homo sapiens) (UniProt Q15303); test: Inhibition of ERBB4 (unknown origin) at 1000 nM
[19] = target: Ribosomal protein S6 kinase beta-1 (Homo sapiens) (UniProt P23443); test: Inhibition of p70S6K(unknown origin) at 1000 nM
[20] = Total AUC in rat at 5 mg/kg, po; type: ADME, organism-based; set-up: dose 5 mg/kg, time AUCmax, route oral; conditions: in vivo
[21] = target: T2, Epidermal growth factor receptor; test: Inhibition of EGFR T790M/deletion (746 to 750 residues) mutant (unknown origin); type: protein assay
Target sequence in this assay (P00533 25-1210 limits assumed, stated change not applied): as the sequence (P00533 25-1210 limits assumed, stated change not applied) above

[22] = target: Receptor-type tyrosine-protein kinase FLT3 (Homo sapiens) (UniProt P36888); test: Inhibition of FLT3 (unknown origin) at 1000 nM
[23] = system: RAF proto-oncogene serine/threonine-protein kinase (Homo sapiens), P04049 [Y340D,Y341D]; test: Inhibition of RAF1 Y340D/Y341D double mutant (unknown origin) at 1000 nM
[24] = Oral bioavailability in rat at 5 mg/kg; type: ADME, organism-based; conditions: in vivo
Rattus norvegicus = test: Unbound AUC in rat at 5 mg/kg, po; type: ADME, organism-based; conditions: in vivo
[25] = target: Vascular endothelial growth factor receptor 2 (Homo sapiens) (UniProt P35968); test: Inhibition of KDR (unknown origin) at 1000 nM
[26] = Drug excretion in iv dosed rat bile assessed as oxidative metabolite; type: ADME, organism-based; conditions: in vivo
[27] = target: Epidermal growth factor receptor (Homo sapiens, UniProt P00533, L858R); test: Inhibition of EGFR L858R mutant (unknown origin); type: protein assay
Chain of Epidermal growth factor receptor (Homo sapiens, UniProt P00533, L858R) (P00533 25-1210 L858R limits assumed): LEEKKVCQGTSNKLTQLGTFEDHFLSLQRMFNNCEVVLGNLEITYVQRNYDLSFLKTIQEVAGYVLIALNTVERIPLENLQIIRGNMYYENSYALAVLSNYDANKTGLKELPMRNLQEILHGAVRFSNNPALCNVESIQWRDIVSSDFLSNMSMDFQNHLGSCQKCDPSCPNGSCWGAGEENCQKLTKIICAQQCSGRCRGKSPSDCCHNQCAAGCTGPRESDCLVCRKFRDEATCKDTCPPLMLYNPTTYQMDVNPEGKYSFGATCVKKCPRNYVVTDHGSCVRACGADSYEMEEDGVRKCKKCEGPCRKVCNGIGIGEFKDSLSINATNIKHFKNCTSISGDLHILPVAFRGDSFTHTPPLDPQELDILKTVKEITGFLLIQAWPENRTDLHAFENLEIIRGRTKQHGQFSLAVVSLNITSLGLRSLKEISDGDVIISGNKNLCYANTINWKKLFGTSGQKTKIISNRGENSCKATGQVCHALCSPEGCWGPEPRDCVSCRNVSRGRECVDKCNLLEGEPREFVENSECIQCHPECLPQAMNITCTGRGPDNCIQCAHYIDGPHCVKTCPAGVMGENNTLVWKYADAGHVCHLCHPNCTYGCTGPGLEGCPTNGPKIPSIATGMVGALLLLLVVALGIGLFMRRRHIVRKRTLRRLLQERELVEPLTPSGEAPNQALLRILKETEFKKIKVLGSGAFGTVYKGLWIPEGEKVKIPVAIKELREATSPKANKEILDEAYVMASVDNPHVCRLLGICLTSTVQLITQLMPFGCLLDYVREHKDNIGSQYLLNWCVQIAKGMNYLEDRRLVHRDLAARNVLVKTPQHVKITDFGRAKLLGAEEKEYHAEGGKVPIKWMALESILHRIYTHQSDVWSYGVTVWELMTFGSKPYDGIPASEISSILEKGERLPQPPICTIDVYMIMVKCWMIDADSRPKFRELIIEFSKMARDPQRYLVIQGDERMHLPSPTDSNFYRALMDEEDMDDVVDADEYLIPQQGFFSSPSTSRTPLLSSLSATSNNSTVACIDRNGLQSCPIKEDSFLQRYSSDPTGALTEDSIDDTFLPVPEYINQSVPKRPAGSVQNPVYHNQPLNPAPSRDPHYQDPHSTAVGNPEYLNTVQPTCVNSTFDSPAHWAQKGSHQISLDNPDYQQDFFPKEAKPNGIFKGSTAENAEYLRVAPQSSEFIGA

[28] = target: Serine/threonine-protein kinase Chk1 (Homo sapiens) (UniProt O14757); test: Inhibition of CHK1 (unknown origin) at 1000 nM
[29] = target: Tyrosine-protein kinase Lck (Homo sapiens) (UniProt P06239); test: Inhibition of LCK (unknown origin) at 1000 Nm
[30] = Efflux ratio of permeability from basolateral to apical side over apical to basolateral side in MDCK cells; type: ADME, cell-based, Canis lupus familiaris; conditions: dog
[31] = target: CDK2/Cyclin A2 (Homo sapiens) (UniProt P24941+P20248); test: Inhibition of CDK2/cyclinA (unknown origin) at 1000 nM; type: protein-complex assay
[32] = Drug excretion in iv dosed rat urine assessed as glucuronide metabolite; type: ADME, organism-based; conditions: in vivo
[33] = target: T2, Epidermal growth factor receptor; test: Inhibition of wild type EGFR (unknown origin)
Target sequence in this assay (P00533 whole entry, the tested form may be a part): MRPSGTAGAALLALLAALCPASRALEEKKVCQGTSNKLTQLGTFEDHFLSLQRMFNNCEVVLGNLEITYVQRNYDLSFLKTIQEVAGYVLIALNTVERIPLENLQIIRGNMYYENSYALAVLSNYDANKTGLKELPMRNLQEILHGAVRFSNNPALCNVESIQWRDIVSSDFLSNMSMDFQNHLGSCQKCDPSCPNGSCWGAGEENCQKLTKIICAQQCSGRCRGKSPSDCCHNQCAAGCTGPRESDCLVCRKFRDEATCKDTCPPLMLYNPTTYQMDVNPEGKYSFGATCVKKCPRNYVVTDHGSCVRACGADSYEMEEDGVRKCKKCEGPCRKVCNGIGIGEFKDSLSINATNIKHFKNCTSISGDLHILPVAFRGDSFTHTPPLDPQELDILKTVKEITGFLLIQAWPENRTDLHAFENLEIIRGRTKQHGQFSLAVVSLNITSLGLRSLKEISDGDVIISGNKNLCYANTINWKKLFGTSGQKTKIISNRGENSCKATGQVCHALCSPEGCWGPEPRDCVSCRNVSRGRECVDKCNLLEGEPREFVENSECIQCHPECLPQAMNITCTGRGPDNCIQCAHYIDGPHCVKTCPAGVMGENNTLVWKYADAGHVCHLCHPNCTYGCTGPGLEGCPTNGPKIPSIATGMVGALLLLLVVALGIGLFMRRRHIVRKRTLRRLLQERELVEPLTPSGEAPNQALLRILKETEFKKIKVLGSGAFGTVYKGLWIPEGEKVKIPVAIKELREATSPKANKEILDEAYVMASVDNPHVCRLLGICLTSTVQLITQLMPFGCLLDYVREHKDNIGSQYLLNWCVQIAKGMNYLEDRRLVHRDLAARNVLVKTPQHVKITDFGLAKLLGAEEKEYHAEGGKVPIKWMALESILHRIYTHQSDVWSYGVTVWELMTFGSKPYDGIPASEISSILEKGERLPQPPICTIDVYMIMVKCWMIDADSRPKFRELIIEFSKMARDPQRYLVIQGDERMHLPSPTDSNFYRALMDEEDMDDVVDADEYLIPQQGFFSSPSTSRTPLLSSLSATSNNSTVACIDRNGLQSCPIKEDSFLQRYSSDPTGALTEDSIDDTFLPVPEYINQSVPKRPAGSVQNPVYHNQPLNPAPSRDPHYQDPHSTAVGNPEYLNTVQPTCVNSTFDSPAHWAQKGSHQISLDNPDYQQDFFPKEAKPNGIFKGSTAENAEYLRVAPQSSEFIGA

[34] = target: Proto-oncogene tyrosine-protein kinase Src (Homo sapiens) (UniProt P12931); test: Inhibition of SRC (unknown origin) at 1000 nM
[35] = system: Epidermal growth factor receptor (Homo sapiens), P00533 [L858R,T790M]; test: Inhibition of EGFR T790M/L858R double mutant (unknown origin) at 1000 nM; type: protein assay
[36] = target: Receptor tyrosine-protein kinase erbB-2 (Homo sapiens) (UniProt P04626); test: Inhibition of ERBB2 (unknown origin) at 1000 nM

Structure (SMILES): CC1(C)OCc2c(Nc3n[nH]c4ccncc34)nc(-c3cn[nH]c3)nc21
- Ki [1]: > 2000 nM

Structure (SMILES): CC1(C)OCc2c(Nc3n[nH]c(Cl)c3Cl)nc(-c3cn[nH]c3)nc21
- Ki [1]: 389 nM

Structure (SMILES): CC1(C)OCc2c(Nc3nsc4ccccc34)nc(-c3cn[nH]c3)nc21
- Ki [1]: 747 nM

Structure (SMILES): CN(c1nc(-c2cn[nH]c2)nc2c1COC2(C)C)c1n[nH]c2ccccc12
- Ki [1]: 519 nM

Structure (SMILES): CC1(C)OCc2c(Nc3n[nH]c4ccccc34)nc(-c3cc[nH]n3)nc21
- Ki [1]: 175 nM

Structure (SMILES): CC1(C)OCc2c(C(=O)c3n[nH]c4ccccc34)nc(-c3cn[nH]c3)nc21
- Ki [1]: 104 nM

Structure (SMILES): CC1(C)OCc2c(Nc3nc4ccccc4s3)nc(-c3cn[nH]c3)nc21
- Ki [1]: > 2000 nM

Structure (SMILES): CC1(C)OCc2c(Nc3n[nH]c4ccccc34)nc(-c3c[nH]nn3)nc21
- Ki [1]: 732 nM

Structure (SMILES): CC1(C)OCc2c(Nc3n[nH]c4c3CCCC4)nc(-c3cn[nH]c3)nc21
- Ki [1]: > 2000 nM

Structure (SMILES): Cc1cc(Nc2nc(-c3cn[nH]c3)nc3c2COC3(C)C)n[nH]1
- Ki [1]: 844 nM

Structure (SMILES): CC1(C)OCc2c(Nc3n[nH]c4cc(C(F)(F)F)ccc34)nc(-c3cn[nH]c3)nc21
- Papp A→B [6]: 10.3 ×10⁻⁶ cm/s
- clearance [2]: 91 mL/min/kg
- Vd [3]: 1.2 L/kg
- Ki [1]: > 2000 nM
- efflux ratio [30]: 1.5

Structure (SMILES): CC1(C)OCc2c(Nc3n[nH]c4c(C(F)(F)F)cccc34)nc(-c3cn[nH]c3)nc21
- Papp A→B [6]: 8.5 ×10⁻⁶ cm/s
- clearance [2]: 27 mL/min/kg
- solubility kinetic [16]: 3 µM (≈ 1.25 µg/mL)
- Vd [3]: 2.4 L/kg
- AUC [20]: 0.36 µM·h
- Ki [1]: 134 nM
- bioavailability [24]: 5%
- fAUC (Rattus norvegicus): 0.03 µM·h
- Drug metabolism (Hepatocyte [4]): metabolite_detected
- efflux ratio [30]: 1.3
- Drug metabolism (Hepatocyte [5]): metabolite_detected

Stronger by Ki [1], values ahead:

- Ki [1]: 16 nM
Structure (SMILES): CC1(C)OCc2c(Nc3n[nH]c4c(Cl)cc(F)cc34)nc(-c3cn[nH]c3)nc21

- Ki [1]: 22.4 nM
Structure (SMILES): CC1(C)OCc2c(Nc3n[nH]c4cc(Cl)ccc34)nc(-c3cn[nH]c3)nc21

- Ki [1]: 10.4 nM
Structure (SMILES): CC1(C)OCc2c(Nc3n[nH]c4c(F)cc(F)cc34)nc(-c3cn[nH]c3)nc21

- Ki [1]: 3 nM
Structure (SMILES): CC1(C)OCc2c(Nc3n[nH]c4c(F)cccc34)nc(-c3cn[nH]c3)nc21

- clearance [2]: 81 mL/min/kg
- Vd [3]: 6.8 L/kg
- Ki [1]: 8 nM
- Drug metabolism (Hepatocyte [4]): metabolite_detected
- Drug metabolism (Hepatocyte [5]): metabolite_detected
Structure (SMILES): CC1(C)OCc2c(Nc3n[nH]c4ccc(F)cc34)nc(-c3cn[nH]c3)nc21

- Ki [1]: 85 nM
Structure (SMILES): CC1(C)OCc2c(Oc3n[nH]c4ccccc34)nc(-c3cn[nH]c3)nc21

- Papp A→B [6]: 8.4 ×10⁻⁶ cm/s
- inhibition [7]: -4.5%
- inhibition [8]: 10.1%
- clearance [2]: 36 mL/min/kg
- IC50 [9]: 370 nM
- inhibition [10]: 4.5%
- inhibition [11]: 15.3%
- Drug excretion [12]: metabolite_detected
- Ki [13]: 1.7 nM
- inhibition [14]: -7%
- Drug excretion [15]: metabolite_detected
- solubility kinetic [16]: 3 µM (≈ 1.3 µg/mL)
- inhibition [17]: 1.9%
- inhibition [18]: 97%
- inhibition [19]: 2.7%
- Vd [3]: 3.3 L/kg
- AUC [20]: 3.4 µM·h
- Ki [1]: 9 nM
- Ki [21]: 2.5 nM
- inhibition [22]: 38.1%
- inhibition [23]: 38.4%
- bioavailability [24]: 62%
- fAUC (Rattus norvegicus): 0.09 µM·h
- inhibition [25]: 96.4%
- Drug excretion [26]: metabolite_detected
- Ki [27]: 3.4 nM
- inhibition [28]: 6.9%
- inhibition [29]: 85.7%
- efflux ratio [30]: 0.7
- inhibition [31]: -4%
- Drug excretion [32]: metabolite_detected
- Ki [33]: 6.5 nM
- inhibition [34]: 47.6%
- inhibition [35]: 90.8%
- inhibition [36]: 91.8%
Structure (SMILES): CC1(C)OCc2c(Nc3n[nH]c4c(Cl)cccc34)nc(-c3cn[nH]c3C(F)F)nc21

- Ki [1]: 2 nM
Structure (SMILES): CC1(C)OCc2c(Nc3n[nH]c4cc(F)ccc34)nc(-c3cn[nH]c3)nc21

- Papp A→B [6]: 12.9 ×10⁻⁶ cm/s
- clearance [2]: 38 mL/min/kg
- IC50 [9]: 3000 nM
- Ki [13]: < 0.5 nM
- Vd [3]: 2.3 L/kg
- AUC [20]: 7.5 µM·h
- Ki [1]: 34.3 nM
- Ki [21]: 21.3 nM
- bioavailability [24]: 117%
- fAUC (Rattus norvegicus): 0.23 µM·h
- Ki [27]: < 0.5 nM
- efflux ratio [30]: 0.9
- Ki [33]: 1.1 nM
Structure (SMILES): Cn1nccc1-c1nc(Nc2n[nH]c3ccccc23)c2c(n1)C(C)(C)OC2

- Papp A→B [6]: 7.3 ×10⁻⁶ cm/s
- clearance [2]: 60 mL/min/kg
- Vd [3]: 5.5 L/kg
- Ki [1]: 4 nM
- efflux ratio [30]: 1.1
Structure (SMILES): CC1(C)OCc2c(Nc3n[nH]c4c(Cl)c(F)ccc34)nc(-c3cn[nH]c3)nc21

- Ki [1]: 17 nM
Structure (SMILES): CC1(C)OCc2c(Nc3n[nH]c4cccc(F)c34)nc(-c3cn[nH]c3)nc21

- Ki [1]: 17 nM
Structure (SMILES): CC1(C)OCc2c(Nc3c[nH]c4ccccc34)nc(-c3cn[nH]c3)nc21

- clearance [2]: 60 mL/min/kg
- Vd [3]: 1.5 L/kg
- Ki [1]: 57 nM
Structure (SMILES): Cn1nc(Nc2nc(-c3cn[nH]c3)nc3c2COC3(C)C)c2cccc(F)c21

- Ki [1]: 5.6 nM
Structure (SMILES): CC1(C)OCc2c(Nc3n[nH]c4ccccc34)nc(-c3cscn3)nc21
